Experimental data reported in article PMC7817009, “Structural analysis of rice Os4BGlu18 monolignol β-glucosidase” (PLoS ONE, 2021).

Molecular target: T1, Os4BGlu18 (Oryza sativa, UniProt Q7XSK0)
T1 construct: gene BGLU18; mature protein without predicted signal peptide (1-26); N-terminal thioredoxin-His6 tag cut with enterokinase, a few tag residues remain; residues 27-500 seen, last five (LHENQ) disordered
Experiment: X-ray crystallography of soaked crystal, […] Å
Details: crystals soaked in 1 mM for 20 min, MES pH 6.0; glycone-binding active site (subsite -1)

T1 sequence (Q7XSK0 27-505): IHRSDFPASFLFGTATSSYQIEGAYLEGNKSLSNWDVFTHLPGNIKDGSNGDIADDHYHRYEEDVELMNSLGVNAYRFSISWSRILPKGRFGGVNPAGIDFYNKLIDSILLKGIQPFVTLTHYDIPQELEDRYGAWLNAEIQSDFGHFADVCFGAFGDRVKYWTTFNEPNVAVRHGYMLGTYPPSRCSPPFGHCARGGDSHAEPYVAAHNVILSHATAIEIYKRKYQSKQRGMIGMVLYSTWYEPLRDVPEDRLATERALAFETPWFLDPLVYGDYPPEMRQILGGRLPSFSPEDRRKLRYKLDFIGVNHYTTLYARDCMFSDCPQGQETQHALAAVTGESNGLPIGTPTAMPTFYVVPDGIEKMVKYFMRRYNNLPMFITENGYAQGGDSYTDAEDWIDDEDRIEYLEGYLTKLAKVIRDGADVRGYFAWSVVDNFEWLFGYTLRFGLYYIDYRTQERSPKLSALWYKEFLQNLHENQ

O=C1O[C@H](CO)[C@@H](O)[C@H](O)[C@H]1O [DG, δ-gluconolactone]
X-ray crystallography of soaked crystal, 2.1 Å: could be observed in the active site pocket
